The data set in a line: Pharmacokinetics of KRP-101 in plasma after oral or intravenous administration. Type of data set: in vivo. The following applies: male Beagle dog, intravenous, 0.5 mg/kg. As to the method: To a male Beagle dog, one tablet of the film-coated tablets obtained in Example 1 was administered orally or 0.5 mg/kg of KRP-101 were administered intravenously, and the concentration of KRP-101in plasma was measured until 24 hours after administration.

Take `CC[C@@H](Cc1ccc(OC)c(C(=O)NCc2ccc(Oc3ccc(F)cc3)cc2)c1)C(=O)O` [KRP-101, (S)-2-[3-[N-[4-(4-fluorophenoxy)benzyl]carbamoyl]-4-methoxybenzyl]butanoic acid]: the “AUC (Total area under concentration-time curve)” value came to 1354 ng·h/mL. In addition, the half-life (plasma, read-out: T½ (Elimination half-life) (converted)) is 2.2 h.

The term half-life denotes how long it takes for the measured level to halve.

These data come from patent US20070154543A1, “Solid preparation for oral use” (KYORIN PHARMACEUTICAL CO., LTD, priority 2003, published 2007).
